Data set [1] has as its target T1, tyrosinase (Agaricus bisporus, UniProt C7FF04). The arrangement: method as in earlier work. The note with it: ref 8 (Chang et al.); cited from earlier work.
Target sequence in this assay (C7FF04 2-392): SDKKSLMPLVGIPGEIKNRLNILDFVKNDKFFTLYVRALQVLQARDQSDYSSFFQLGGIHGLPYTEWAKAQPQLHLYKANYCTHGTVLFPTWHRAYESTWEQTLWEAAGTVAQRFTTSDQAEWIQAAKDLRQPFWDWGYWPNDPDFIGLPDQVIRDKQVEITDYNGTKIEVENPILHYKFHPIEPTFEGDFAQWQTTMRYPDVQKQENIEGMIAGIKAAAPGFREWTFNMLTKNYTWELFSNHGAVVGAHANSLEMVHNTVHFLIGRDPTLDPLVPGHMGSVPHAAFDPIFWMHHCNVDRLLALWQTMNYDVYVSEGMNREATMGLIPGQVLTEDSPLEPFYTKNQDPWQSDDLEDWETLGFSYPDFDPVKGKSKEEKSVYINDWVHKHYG
For data set [2], the target named is T1, tyrosinase. The experiment in a line: Slow-binding (time-dependent) inhibition kinetics. The conditions noted are these: for Time dependence of interaction with tyrosinase: time-course enzyme assay. Details: purchased Sigma-Aldrich T3824. The class given is biochemical. As to the method:
These curves were calculated by the following Equation (1):(1) [P]=vst+vi−vs/kobs[1−exp(−kobst)] where [P] is the concentration of product from the catalytic reaction, and the first-order rate constant (kobs) is the slow-binding constant corresponding to vi and vs.
The plot of kobs versus [inhibitor, I] is represented in Figure 3B.
First, the initial enzyme–ligand complex (E·I) forms rapidly, and then the isomerized enzyme–ligand complex (E*·I) forms slowly. Using Equation (3), k3 , k4 , and Kiapp kinetic parameters were calculated as 0.0041 S^−1, 0.0004 S^−1, and 35.8 µM, respectively (Table 2).
Target sequence in this assay (C7FF04 1-392 limits assumed): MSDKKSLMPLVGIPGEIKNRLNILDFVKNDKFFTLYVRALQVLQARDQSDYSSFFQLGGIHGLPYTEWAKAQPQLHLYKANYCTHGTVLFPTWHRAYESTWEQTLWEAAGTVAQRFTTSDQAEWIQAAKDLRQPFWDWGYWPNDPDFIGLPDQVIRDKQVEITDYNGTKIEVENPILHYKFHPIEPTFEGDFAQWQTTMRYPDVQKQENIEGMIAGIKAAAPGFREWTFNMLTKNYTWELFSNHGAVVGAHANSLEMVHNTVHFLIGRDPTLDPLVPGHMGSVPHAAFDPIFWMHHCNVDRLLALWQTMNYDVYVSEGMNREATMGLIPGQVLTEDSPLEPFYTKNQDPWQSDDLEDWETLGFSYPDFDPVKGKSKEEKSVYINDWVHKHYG

Data set [3] concerns the target T1, tyrosinase. The experiment in a line: Enzyme kinetics (Lineweaver-Burk and Dixon plots). The class given is biochemical. The note with it: Lineweaver-Burk plot. The protocol: Enzyme kinetics are used to confirm the binding positions between an enzyme and inhibitor [7]. This study confirmed the effect of the substrate concentration on tyrosinase activity using four different concentrations. The initial velocity (vi) was calculated at steady-state. A Lineweaver–Burk plot was represented by 1/v versus 1/substrate in the presence of inhibitor according to enzyme kinetics theory. Their regression lines intersected the y-axis at the same point and the x-axis at different points.
Target sequence in this assay (C7FF04 2-392): as the sequence (C7FF04 2-392) above

The target of data set [4] is T1, tyrosinase. Type of data set: biochemical. The note with it: preincubated with enzyme.
Target sequence in this assay (C7FF04 2-392): as above
Procedure: The amount of L-DOPA converted from L-tyrosine as substrate of this enzyme was quantified in the presence of each respective compound [7].
Briefly, tyrosinase (~45 U/mL, 130 µL) in 50 µM phosphate buffer (pH 6.8) was added to 96-well plates. Twenty microliters of each respective compound (1 mM) were dissolved in MeOH, and compounds 2 and 8 (diluted to 0.065 mM) were added. Finally, 50 µL 1.5 mM L-tyrosine were added as a substrate. After initiating the enzyme reaction at 37 °C, the products were measured using UV-Vis determination (wavelength, 475 nm) for 20 min. The inhibition ratio was calculated using the following Equation (3):Inhibitory activity (%) = [(Δcontrol − Δinhibitor)/Δcontrol] × 100(3)
The mark [5] stands for this setting: time-dependent inhibition, kobs versus [I].

Read-outs that look alike come from different tables or passages of the source.

Take `O=c1c(-c2ccc(O)cc2)coc2cc(O)c(O)cc12` [6,7,4′-trihydroxyisolflavone]: the Binding Mode entry at tyrosinase [1] is listed as “competitive inhibitor”.

`O=c1c(-c2ccc(O)cc2O)coc2cc(O[C@@H]3O[C@H](CO[C@@H]4O[C@H](CO)[C@@H](O)[C@H](O)[C@H]4O)[C@@H](O)[C@H](O)[C@H]3O)cc(O)c12` [compound 8, 2′-hydroxygenistein-7-O-gentibioside]: the “Time dependence of interaction with tyrosinase” value on tyrosinase [2] was “did not exhibit this pattern”. For the same compound, the “Binding Mode” value at tyrosinase [3] is recorded as “Competitive”.

For `O=c1c2c(O)cc(O)cc2oc2oc3cc(O)ccc3c12` [compound 2, lupinalbin A], the “Increase of inhibitory activity by preincubation compared with IC50 in the absence of preincubation” value at tyrosinase [4] is on record as 3 fold. On tyrosinase [2], the Ki turned out to be 35.8 µM and the “Time dependence of interaction with tyrosinase” value is listed as “time-dependent manner”. At tyrosinase [2] (setting [5]), the k5 was found to be 0.0041 S^−1 and the k6 is reported as 0.0004 S^−1. Further, on tyrosinase [3], the “Binding Mode” value is recorded as “Competitive”.

Source of the values: publication PMC6017567, “Chemical Constituents from Apios americana and Their Inhibitory Activity on Tyrosinase” (Molecules : A Journal of Synthetic Chemistry and Natural …, 2018).
